According to US9765035B2 (priority 2013, dated 2017):
Read-outs that look alike come from different tables or passages of the source.

Biological target: T1, human PRMT1 (Homo sapiens, UniProt Q99873)
T1 construct: GST-tagged PRMT1; made in house; host or cells: High Five insect cells (baculovirus)
Assay: biochemical
Description: General Materials. S-adenosylmethionine (SAM), S-adenosylhomocysteine (SAH), bicine, Tween20, dimethylsulfoxide (DMSO), bovine skin gelatin (BSG), and Tris(2-carboxyethyl)phosphine hydrochloride solution (TCEP) were purchased from Sigma-Aldrich at the highest level of purity possible. ^3H-SAM was purchase from American Radiolabeled Chemicals with a specific activity of 80 Ci/mmol. 384-well streptavidin Flashplates were purchased from PerkinElmer.
Substrates. Peptide representative of human histone H4 residues 36-50 was synthesized with an N-terminal linker-affinity tag motif and a C-terminal amide cap by 21st Century Biochemicals. The peptide was purified by high-performance liquid chromatography (HPLC) to greater than 95% purity and confirmed by liquid chromatography mass spectrometry (LC-MS). The sequence was Biot-Ahx-[…]-amide (SEQ ID NO.:1).
Molecular Biology: Full-length human PRMT1 isoform 1 (NM_001536.5) transcript clone was amplified from an HEK 293 cDNA library, incorporating flanking 5′ sequence encoding a FLAG tag ([…]) (SEQ ID NO.:2) fused directly to Met 1 of PRMT1. The amplified gene was subcloned into pFastBacI (Life Technologies) modified to encode an N-terminal GST tag and a TEV cleavage sequence
Protein Expression. Recombinant baculovirus were generated according to Bac-to-Bac kit instructions (Life Technologies). Protein over-expression was accomplished by infecting exponentially growing High Five insect cell culture at 1.5×10^6 cell/ml with 1:100 ratio of virus. Infections were carried out at 27° C. for 48 hours, harvested by centrifugation, and stored at −80° C. for purification.
Protein Purification. […] GST-tagged PRMT1 was eluted with 50 mM Tris, 2 mM glutathione, pH 7.8, dialysed in buffer A and concentrated to 1 mg/mL. The purity of recovered protein was 73%. Reference: Wasilko, D. J. and S. E. Lee: “TIPS: titerless infected-cells preservation and scale-up” Bioprocess J., 5 (2006), pp. 29-32.
General Procedure for PRMT1 Enzyme Assays on Peptide Substrates. The assays were all performed in a buffer consisting of 20 mM Bicine (pH=7.6), 1 mM TCEP, 0.005% BSG, and 0.002% Tween 20, prepared on the day of use. Compounds in 100% DMSO (1 ul) were spotted into a polypropylene 384-well V-bottom plates (Greiner) using a Platemate Plus outfitted with a 384-channel head (Thermo Scientific). DMSO (1 ul) was added to Columns 11, 12, 23, 24, rows A-H for the maximum signal control and 1 ul of SAH, a known product and inhibitor of PRMT1, was added to columns 11, 12, 23, 24, rows I-P for the minimum signal control. A cocktail (40 ul) containing the PRMT1 enzyme was added by Multidrop Combi (Thermo-Fisher). The compounds were allowed to incubate with PRMT1 for 30 min at room temperature, then a cocktail (10 ul) containing SAM and peptide was added to initiate the reaction (final volume=51 ul). The final concentrations of the components were as follows: PRMT1 was 0.5 nM, ^3H-SAM was 200 nM, non-radiolabeled SAM was 1.5 uM, peptide was 20 nM, SAH in the minimum signal control wells was 1 mM, and the DMSO concentration was 2%. The assays were stopped by the addition of non-radiolabeled SAM (10 ul) to a final concentration of 300 uM, which dilutes the ^3H-SAM to a level where its incorporation into the peptide substrate is no longer detectable. 50 ul of the reaction in the 384-well polypropylene plate was then transferred to a 384-well Flashplate and the biotinylated peptides were allowed to bind to the streptavidin surface for at least 1 hour before being washed once with 0.1% Tween20 in a Biotek EL×405 plate washer. The plates were then read in a PerkinElmer TopCount plate reader to measure the quantity of ^3H-labeled peptide bound to the Flashplate surface, measured as disintegrations per minute (dpm) or alternatively, referred to as counts per minute (cpm).
Where dpm=disintegrations per minute, cmpd=signal in assay well, and min and max are the respective minimum and maximum signal controls. […]

[1] = biochemical evaluation, peptide substrate, read-out: PRMT1 IC50
[2] = single experiment or average of multiple experiments, read-out: PRMT1 biochemical evaluation (numerical)

T1 sequence (Q99873 other isoform, or with tags, fused parts or gaps): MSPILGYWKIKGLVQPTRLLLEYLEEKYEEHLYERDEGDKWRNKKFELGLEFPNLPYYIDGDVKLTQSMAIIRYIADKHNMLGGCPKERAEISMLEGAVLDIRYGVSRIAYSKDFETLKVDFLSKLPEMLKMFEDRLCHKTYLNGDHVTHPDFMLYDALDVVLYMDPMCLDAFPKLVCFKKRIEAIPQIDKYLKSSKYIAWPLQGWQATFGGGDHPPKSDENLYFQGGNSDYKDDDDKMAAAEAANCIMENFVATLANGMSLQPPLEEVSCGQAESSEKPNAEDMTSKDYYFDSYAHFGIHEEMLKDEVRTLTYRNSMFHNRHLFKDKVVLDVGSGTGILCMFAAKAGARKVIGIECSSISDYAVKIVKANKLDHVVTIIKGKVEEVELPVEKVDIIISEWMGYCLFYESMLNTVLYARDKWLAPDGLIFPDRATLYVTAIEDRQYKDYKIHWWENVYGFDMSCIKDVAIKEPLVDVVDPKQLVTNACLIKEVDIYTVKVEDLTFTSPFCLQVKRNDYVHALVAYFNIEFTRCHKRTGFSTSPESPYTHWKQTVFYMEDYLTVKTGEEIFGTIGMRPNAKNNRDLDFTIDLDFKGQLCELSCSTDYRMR

Structure (SMILES) | IC50 [1] [nM] | IC50 [2] [nM]
CNCCN(C)Cc1n[nH]c2ccc(C3=CCCCC3)cc12 [Compound 48] | ≤ 100 | 34
CNCCN(C)Cc1n[nH]c2ccc(Oc3ccccc3C(F)(F)F)cc12 [Compound 49] | 3010 to 10000 | 15.7
CNCCN(C)Cc1n[nH]c2ccc(OCC3CCOCC3)cc12 [Compound 50] | 3010 to 10000 | 11
CNCCN(C)Cc1n[nH]c2ccc(OCC3CCN(C(C)=O)CC3)cc12 [Compound 51] | 1010 to 3000 | 5520
CNCCN(C)Cc1n[nH]c2ccc(OCC3CCCC3)cc12 [Compound 52] | 1010 to 3000 | 3690
CNCCN(C)Cc1c2cc(OCc3ccc(C#N)cc3)ccc2nn1C1CCOCC1 [Compound 53] | 3010 to 10000 | 1760
CNCCN(C)Cc1n[nH]c2ccc(OCC3CCCCC3)cc12 [Compound 54] | 101 to 1000 | 2000
CNCCN(C)Cc1n[nH]c2ccc(Oc3ccc(C)cc3)cc12 [Compound 55] | < 100 | 6550
CNCCN(C)Cc1n[nH]c2ccc(Oc3ccccc3OC(C)C)cc12 [Compound 56] | < 100 | 994
CNCCN(C)Cc1n[nH]c2ccc(Oc3ccc(Cl)cc3)cc12 [Compound 57] | 101 to 1000 | 43.3
CNCCN(C)Cc1n[nH]c2ccc(OC3CCN(C(C)=O)CC3)cc12 [Compound 58, 1-(4-((3-((methyl(2-(methylamino)ethyl)amino)methyl)-1H-indazol-5-yl)oxy)piperidin-1-yl)ethan-1-one] | 101 to 1000 | 57.9
CNCCN(C)Cc1n[nH]c2ccc(Oc3ccc(OC)cc3)cc12 [Compound 59] | < 100 | 101
CNCCN(C)Cc1n[nH]c2ccc(Oc3ccccc3C)cc12 [Compound 60] | < 100 | 353
CNCCN(C)Cc1n[nH]c2ccc(Oc3ccc(OC(C)C)cc3)cc12 [Compound 61] | < 100 | 40.8
CNCCN(C)Cc1nn(C(C)C)c2ccc(OCc3ccc(C#N)cc3)cc12 [Compound 62] | 1010 to 3000 | 56.5
CCOc1ccc2[nH]nc(CN(C)CCNC)c2c1 [Compound 63] | 101 to 1000 | 98.6
CNCCN(C)Cc1n[nH]c2ccc(OC(C)C)cc12 [Compound 64] | ≤ 100 | 2630
CCCOc1ccc2[nH]nc(CN(C)CCNC)c2c1 [Compound 65] | ≤ 100 | 128
CNCCN(C)Cc1n[nH]c2ccc(OCc3cccc(C(N)=O)c3)cc12 [Compound 66] | < 100 | 35
CNCCN(C)Cc1n[nH]c2ccc(Oc3cccc(OC(C)C)c3)cc12 [Compound 67] | < 100 | 24.8
CNCCN(C)Cc1n[nH]c2ccc(OCc3ccc(C(F)(F)F)cc3)cc12 [Compound 68] | 101 to 1000 | 91.5
CNCCN(C)Cc1n[nH]c2ccc(OCc3ccc(C(N)=O)cc3)cc12 [Compound 69] | 101 to 1000 | 30.3
CNCCN(C)Cc1n[nH]c2ccc(OCc3cccc(NC(C)=O)c3)cc12 [Compound 70] | 101 to 1000 | 188
CNCCN(C)Cc1n[nH]c2ccc(OCc3ccc(C(C)(C)C)cc3)cc12 [Compound 71] | 101 to 1000 | 203
CNCCN(C)Cc1n[nH]c2ccc(OCc3cccc(C(F)(F)F)c3)cc12 [Compound 72] | < 100 | 182
CNCCN(C)Cc1n[nH]c2ccc(OCc3cccc(C(C)=O)c3)cc12 [Compound 73] | < 100 | 143
CNCCN(C)Cc1n[nH]c2ccc(OCc3cccc(C(C)(C)C)c3)cc12 [Compound 74] | 101 to 1000 | 23
